From US7592353B2, “Substituted 3-amino-thieno[2,3-b]pyridine-2-carboxylic acid amide compounds and processes for preparing and their uses” (Boehringer Ingelheim International GmbH, priority 2006, dated 2009)

Columns and labels:
human IKKβ = target: T1, human IKKβ (Homo sapiens, UniProt O14920); assay: Molecular assay IKKb: phosphorylation of IκBα substrate by IKKβ; assay type: biochemical
T1 construct: FLAG (N)
T1 sequence (O14920 1-756): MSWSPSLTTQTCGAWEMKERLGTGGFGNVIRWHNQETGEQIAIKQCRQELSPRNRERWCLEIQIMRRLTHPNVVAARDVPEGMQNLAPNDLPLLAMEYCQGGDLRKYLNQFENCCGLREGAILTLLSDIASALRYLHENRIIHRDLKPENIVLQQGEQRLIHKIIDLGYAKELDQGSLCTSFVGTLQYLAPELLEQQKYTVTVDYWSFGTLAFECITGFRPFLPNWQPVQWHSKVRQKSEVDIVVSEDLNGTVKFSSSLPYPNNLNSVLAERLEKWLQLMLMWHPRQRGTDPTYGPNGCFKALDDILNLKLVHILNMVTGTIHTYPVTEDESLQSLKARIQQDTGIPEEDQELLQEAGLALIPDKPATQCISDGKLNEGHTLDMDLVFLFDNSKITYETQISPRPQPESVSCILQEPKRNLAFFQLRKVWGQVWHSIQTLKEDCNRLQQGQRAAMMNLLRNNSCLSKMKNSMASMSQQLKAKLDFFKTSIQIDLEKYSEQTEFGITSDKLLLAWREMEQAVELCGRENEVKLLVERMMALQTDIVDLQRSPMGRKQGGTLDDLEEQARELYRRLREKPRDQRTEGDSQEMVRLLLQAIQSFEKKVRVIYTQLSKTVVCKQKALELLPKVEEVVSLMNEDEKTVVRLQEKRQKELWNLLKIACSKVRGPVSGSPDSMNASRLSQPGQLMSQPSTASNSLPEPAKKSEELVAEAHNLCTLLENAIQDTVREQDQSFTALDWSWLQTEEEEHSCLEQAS
Protocol: The inhibition of IKKα and IKKβ by the compounds of the present invention can be determined with the following assay that measures the phosphorylation of the IκBα substrate by the respective kinases. The enzymes used in the assay were N-terminally flag-tagged versions of the human IKKβ or IKKα and the substrate was a GST fusion protein with IκBα (amino acids 1-54).
The reaction mixtures (60 μl) contained 20 mM HEPES pH 7.5, 10 mM MgCl2, 2 mM MnCl2, 100 mM NaCl, 100 μM Na3VO4, 20 mM β-glycerophosphate, 1 mM DTT, 2% DMSO, 250 nM ATP, 0.4 nM [^33P]ATP (specific activity, 3000 Ci/mmol), IκBα substrate, IKK enzyme and test compound. The reaction mixtures contained either 3.6 μg/ml IKKα and 245 μg/ml IκBα or 0.9 μg/ml IKKβ and 53 μg/ml IκBα.
Reactions were initiated by adding a solution of IκBα substrate and ATP to polypropylene plates containing IKK enzyme that was pre-incubated for 5 minutes with test compound. Then the reaction mixtures were incubated for 1 hour at 25° C., placed on ice and quenched by the addition of 150 μl 10% trichloroacetic acid and 5% disodium pyrophosphate. After mixing, the entire contents of the quenched reaction mixtures were transferred to a pre-wetted Packard UniFilter filtration plate, aspirated and washed 6 times with 250 μl of ddH2O using the Packard Filtermate Harvester. Filtration plates were then air dried, supplemented with 40 μl of Microscint 20 scintillation fluid and the ^33P-labeled reaction products were quantified using the Packard TopCount scintillation counter.
Compounds were tested in three-fold serial dilutions and inhibitor concentrations to achieve 50% inhibition of enzyme activity (i.e., IC50) were derived from dose-response curves using SAS software (SAS Institute, Cary N.C.). A non-linear regression analysis based on the Hill equation was applied to the percent inhibition versus concentration data. In all cases, compound concentrations were verified by HPLC.

[1] = system: ICAM-1 Expression on HeLa Cells; assay: Cell assay HeLa: ELISA of TNFα-stimulated ICAM-1 expression on HeLa cells; assay type: cell-based; details: for IC50: Homo sapiens, HeLa cells, TNFα stimulation, ICAM-1 expression; for cellular potency relative to the —CF3 group of compound 101: comparison in words, Table II
Protocol: HeLa cells are seeded on 96 well tissue culture treated plates (Costar) in complete medium comprised of 10% decomplemented fetal bovine serum in RPMI1640 with gentamycin and L-glutamine and grown overnight to confluence. The following day, the media is changed and the wells are treated with test compounds. 10 mM DMSO stock solutions of compounds are serially diluted with 0.1% DMSO (final concentration)-screening media to 5 final concentrations (starting at 10 μM). Compounds are pre-incubated with cells for 30 min followed by stimulation with TNFα (R&D Systems) for 5-6 hr. The adherent cells are then assayed for expression of intercellular adhesion molecule-1 (ICAM-1). Monolayers are washed three times with D-PBS (Gibco) and fixed for 10 min at room temperature with 1% paraformaldehyde (Polysciences, Inc) diluted in D-PBS. After washing to remove fixative, the monolayers are blocked with 2% BSA-D-PBS overnight at 4° C. 100 μL of anti-ICAM-1 mAB RR1-HRP (diluted 1:5000 in 2% BSA-DPBS; Zymed custom conjugate of BIPI mAB) is added for 1 hr at 37° C. Wells are washed three times with D-PBS. 100 μL of ABTS substrate diluted in substrate buffer (Zymed) is added to each well. Optical absorbance is measured at 405 nm in a Thermomax microplate reader ([…]). Data is plotted as percent of control and IC50s are determined using xlfit 4 model # 201.

[2] = Rat oral exposure (plasma exposure upon oral administration); assay type: in vivo; details: for concentration at 2 h / concentration at 6 h / concentration at 10 h: plasma, rat, oral, 10 mg/kg; for concentration at 2 h: read-out: Rat oral exposure (μM) @ 10 mg/kg dose 2h; for concentration at 6 h: read-out: Rat oral exposure (μM) @ 10 mg/kg dose 6h; for concentration at 10 h: read-out: Rat oral exposure (μM) @ 10 mg/kg dose 10h
[3] = system: established type II collagen arthritis in rats; assay: Rat CIA model (7 day rat established type II collagen arthritis); assay type: in vivo
From the text: Effects of Compounds in 7 Day Rat Established Type II Collagen Arthritis
Purpose: To determine the dose responsive efficacy of compounds administered by oral gavage dosing bid in inhibiting the inflammation, cartilage destruction and bone resorption of established type II collagen arthritis in rats. The terminal pharmacokinetic component is included.
Animals: 36 (Order 42) Female Lewis rats (Harlan, 1173000), weighing 125-150 g on arrival. Extras are used because animals with arthritis are selected and there is not 100% incidence of disease in this model in the short time frame for enrollment (inject 42 with collagen to get […] solid responders on days 10, 11 for 4 groups of 8. Four rats are used to serve as normal controls.
Materials: Agents or drugs in vehicle (Cremaphor), Type II collagen, Freund's incomplete adjuvant.
General Study Design: Animals (8/group for arthritis, 4/group for normal control), housed 4/cage, are acclimated for 4-8 days.
Acclimated animals are anesthetized with Isoflurane and given collagen injections (day 0). […]
Statistical analysis of body/paw weights and paw AUC and histopathology parameters are evaluated using a one-way analysis of variance (ANOVA). […]
Percent inhibition of paw weight and AUC is calculated using the following formula: % Inhibition=A−B/A×100 A=Mean Disease Control−Mean Normal B=Mean Treated−Mean Normal

| SMILES | IC50 (human IKKβ) [nM] | IC50 [1] [nM] | cellular potency relative to the —CF3 group of compound 101 [1] | concentration at 2 h [2] [µM] | concentration at 6 h [2] [µM] | concentration at 10 h [2] [µM] | level of sustained plasma exposure upon oral administration to rat, versus Compound 100 ([2]; comparison in words, Table II) | oral activity in a rat model of collagen induced arthritis ([3]; comparison in words, Table III) | Inhibition of paw weight increase ([3]; rat CIA, oral, 10 mg/kg BID) [%] |
| --- | --- | --- | --- | --- | --- | --- | --- | --- | --- |
| CCCc1cc(N2CCC(S(C)(=O)=O)CC2)nc2sc(C(N)=O)c(N)c12 [Compound 100, reference compound] | 78 | 720 | improved cellular potency | 0.21 | 0.12 | 0.08 | – | – | – |
| CS(=O)(=O)C1CCN(c2cc(C(F)(F)F)c3c(N)c(C(N)=O)sc3n2)CC1 [Compound 101] | 120 | 3200 | – | – | – | – | – | – | – |
| CCC(F)(F)c1cc(N2CCC(S(C)(=O)=O)CC2)nc2sc(C(N)=O)c(N)c12 [Compound 115, 3-Amino-4-(1,1-difluoro-propyl)-6-(4-methanesulfonyl-piperidin-1-yl)-thieno[2,3-b]pyridine-2-carboxylic acid amide] | 26 | 700 | improved cellular potency | 1.59 | 0.78 | 0.65 | improved level of sustained plasma exposure | superior oral activity | 44 |
